According to patent US11420966B2 (ACLARIS THERAPEUTICS, INC., priority 2019, dated 2022):

How the values were obtained:
[1] = tested on: IFNγ stimulated STAT1 phosphorylation on Tyr701 (JAK1/2); experiment: JAK1/2 cellular target modulation: IFNγ stimulated phospho-STAT1 in PBMC; format: cell-based; details: human PBMC, IFNγ 10 ng/ml; read-out: Infγ-STAT1 IC50
Method in brief: (§1)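 Thawed human PBMC (200,000/well, RPMI/10% FBS) were preincubated with compound for 1 h at 37 °C, added from 10× stocks in 1% DMSO. Stimulation and read-out: IL-2 25 ng/ml, 5 min, pSTAT5 by MSD; IL-12 1.7 ng/ml, 25 min, pSTAT4 by MSD; IFNγ 10 ng/ml, 10 min, pSTAT1 by sandwich ELISA.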

JAK1 = JAK1 (Homo sapiens (Human), UniProt P23458); experiment: JAK1 enzyme activity assay (Thermo Fisher SelectScreen, Z-lyte); format: biochemical; details: read-out: JAK1 Inhibition IC50
Chain of JAK1 (P23458 whole entry): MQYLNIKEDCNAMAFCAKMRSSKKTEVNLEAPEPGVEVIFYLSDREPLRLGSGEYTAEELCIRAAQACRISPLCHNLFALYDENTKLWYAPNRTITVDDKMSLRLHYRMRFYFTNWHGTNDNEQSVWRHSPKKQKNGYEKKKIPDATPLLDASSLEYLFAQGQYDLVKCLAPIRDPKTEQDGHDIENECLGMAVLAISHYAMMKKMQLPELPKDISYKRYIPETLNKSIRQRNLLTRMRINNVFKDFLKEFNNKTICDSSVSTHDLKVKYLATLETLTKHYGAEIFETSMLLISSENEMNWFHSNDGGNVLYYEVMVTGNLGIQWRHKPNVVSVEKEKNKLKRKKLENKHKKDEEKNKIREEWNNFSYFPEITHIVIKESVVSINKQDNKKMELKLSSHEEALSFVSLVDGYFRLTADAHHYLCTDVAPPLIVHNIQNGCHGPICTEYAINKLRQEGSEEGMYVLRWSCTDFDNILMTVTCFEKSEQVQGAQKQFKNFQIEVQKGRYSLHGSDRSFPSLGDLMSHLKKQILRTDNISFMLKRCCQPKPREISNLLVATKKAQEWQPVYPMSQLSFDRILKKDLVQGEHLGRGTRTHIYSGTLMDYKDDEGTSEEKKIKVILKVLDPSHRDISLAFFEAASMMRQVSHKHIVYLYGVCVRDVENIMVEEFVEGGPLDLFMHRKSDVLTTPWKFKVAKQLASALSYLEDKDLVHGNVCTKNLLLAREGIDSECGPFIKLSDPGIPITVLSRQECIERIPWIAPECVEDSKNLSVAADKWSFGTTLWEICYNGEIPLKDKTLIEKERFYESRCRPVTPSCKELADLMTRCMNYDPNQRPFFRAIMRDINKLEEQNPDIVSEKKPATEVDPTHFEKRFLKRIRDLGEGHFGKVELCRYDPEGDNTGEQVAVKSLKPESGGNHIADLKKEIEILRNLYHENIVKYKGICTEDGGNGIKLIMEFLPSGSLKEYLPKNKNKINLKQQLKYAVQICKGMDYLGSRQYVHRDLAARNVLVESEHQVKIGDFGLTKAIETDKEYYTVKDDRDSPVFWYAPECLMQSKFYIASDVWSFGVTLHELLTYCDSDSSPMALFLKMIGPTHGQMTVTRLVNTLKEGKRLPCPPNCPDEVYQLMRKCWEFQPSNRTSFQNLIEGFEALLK
Method in brief: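 Z-lyte assay with 21.2-91.5 ng JAK and […] Tyr 06 in 50 mM HEPES pH 7.0, 10 mM MgCl2, 1 mM EGTA, 0.01% BRIJ-35; 1 h kinase reaction, then development reagent. 11-point dose-response from […] to 0.34 nM, 2% DMSO vehicle; IC50 from 4-parameter logistic fit of emission ratio.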

Tyk-2 = Tyk-2 (Homo sapiens (Human), UniProt P29597); experiment: Tyk-2 enzyme activity assay (Thermo Fisher SelectScreen, Z-lyte); format: biochemical; details: read-out: Tyk-2 Inhibition IC50
Chain of Tyk-2 (P29597 whole entry): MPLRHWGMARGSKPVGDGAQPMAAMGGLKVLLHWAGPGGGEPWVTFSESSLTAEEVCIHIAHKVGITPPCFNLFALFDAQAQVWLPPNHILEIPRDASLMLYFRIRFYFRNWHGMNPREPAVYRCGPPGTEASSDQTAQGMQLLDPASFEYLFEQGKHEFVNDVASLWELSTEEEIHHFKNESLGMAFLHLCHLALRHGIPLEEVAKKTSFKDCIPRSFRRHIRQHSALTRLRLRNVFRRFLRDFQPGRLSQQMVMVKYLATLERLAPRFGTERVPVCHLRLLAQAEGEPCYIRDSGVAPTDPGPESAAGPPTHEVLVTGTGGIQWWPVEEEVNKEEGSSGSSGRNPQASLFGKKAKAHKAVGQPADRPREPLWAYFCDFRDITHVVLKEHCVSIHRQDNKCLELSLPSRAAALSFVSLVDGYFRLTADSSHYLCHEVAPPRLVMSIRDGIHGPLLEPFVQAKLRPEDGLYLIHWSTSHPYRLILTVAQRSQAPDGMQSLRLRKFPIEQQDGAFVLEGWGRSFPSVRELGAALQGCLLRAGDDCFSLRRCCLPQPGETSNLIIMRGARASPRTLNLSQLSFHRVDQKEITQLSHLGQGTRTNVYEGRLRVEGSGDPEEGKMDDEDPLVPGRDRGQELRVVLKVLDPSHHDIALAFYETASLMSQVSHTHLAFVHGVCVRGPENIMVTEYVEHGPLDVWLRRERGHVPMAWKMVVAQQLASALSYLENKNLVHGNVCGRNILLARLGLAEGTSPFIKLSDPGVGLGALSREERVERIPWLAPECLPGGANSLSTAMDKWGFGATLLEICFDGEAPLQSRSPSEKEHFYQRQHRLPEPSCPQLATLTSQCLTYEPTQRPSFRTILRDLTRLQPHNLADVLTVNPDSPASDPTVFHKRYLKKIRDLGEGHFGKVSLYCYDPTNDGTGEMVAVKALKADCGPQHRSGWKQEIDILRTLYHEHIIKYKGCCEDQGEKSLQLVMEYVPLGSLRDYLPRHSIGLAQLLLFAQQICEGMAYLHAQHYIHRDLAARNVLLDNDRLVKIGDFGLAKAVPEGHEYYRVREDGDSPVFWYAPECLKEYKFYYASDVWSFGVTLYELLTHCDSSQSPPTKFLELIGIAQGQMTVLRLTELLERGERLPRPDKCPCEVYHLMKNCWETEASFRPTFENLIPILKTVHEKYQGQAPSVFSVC
Method in brief: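 Z-lyte FRET assay: 3.75–15 ng TYK2 with […] Tyr 03 peptide in HEPES pH 7.0, MgCl2, EGTA, BRIJ-35; 1 h reaction, then development reagent. 11-point dose-response, 2% DMSO; IC50 via 4-parameter fit of emission ratio, background without enzyme.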

[2] = tested on: IL-2 stimulated STAT5 phosphorylation on Tyr694 (JAK1/3); experiment: JAK1/3 cellular target modulation: IL-2 stimulated phospho-STAT5 in PBMC; format: cell-based; details: human PBMC, IL-2 25 ng/ml; read-out: IL2-STAT5 IC50
Method in brief: as §1

[3] = tested on: IL-12 stimulated STAT4 phosphorylation on Tyr693 (JAK2/TYK2); experiment: JAK2/TYK2 cellular target modulation: IL-12 stimulated phospho-STAT4 in PBMC; format: cell-based; details: human PBMC, IL-12 1.7 ng/ml; read-out: IL12-STAT4 IC50
Source text: JAK Cellular Target Modulation Assays
Target modulation was based upon the ability of a compound to inhibit JAK isoform specific phosphorylation of selected substrates. IL-2 stimulated STAT5 phosphorylation on Tyr694 was used to assess JAK1/3 compound selectivity. GM-CSF stimulated STAT5 phosphorylation on Tyr694 was used to assess JAK2 compound selectivity. IFNγ stimulated STAT1 phosphorylation on Tyr701 was used to assess JAK1/2 compound selectivity. IL-12 stimulated STAT4 phosphorylation on Tyr693 was used to assess JAK2/TYK2 compound selectivity. For all four assays, human PBMC from frozen stocks were thawed, pelleted, resuspended in complete media (90% RPMI, 10% heat inactivated FBS, 10 mM HEPES, 47 μM 2-ME, pen/strep) and placed in wells of a 96 well V-bottom plate at 200,000 per well in 120 μl complete media. Compounds were added as 15 μl per well of 10× working stock solutions in complete media with 1% DMSO (or medium with 1% DMSO for controls) and placed on a plate shaker in a 37° C. incubator with 5% CO2 for 1 hour with gentle shaking (setting of 3). Stimulation used the addition of soluble cytokines. For the JAK1/3 phospho-STAT5 assay, 15 μl of 10× working stock recombinant human IL-2 was added to a final concentration of 25 ng/ml. For the JAK2 phospho-STAT5 assay, 15 μl of 10× working stock recombinant human GM-CSF was added to a final concentration of 5 ng/ml. For the JAK1/2 phospho-STAT1 assay, 15 μl of 10× working stock of recombinant human IFNγ was added to a final concentration of 10 ng/ml. For the JAK2/TYK2 phospho-STAT4 assay, 15 μl of 10× working stock of recombinant human IL-12 was added to a final concentration of 1.7 ng/ml. Plates were then placed back on the plate shaker in the incubator for an additional 5, 5, 10, and 25 minutes respectively upon which the plates were removed from the incubator, sealed with a plate sealer and the cells pelleted at 400×g for 5 minutes. After pelleting, the media was removed by aspiration and the cells were lysed in assay specific cell lysis buffer. The levels of phospho-STATS were determined using a Phospho (Tyr694) STAT5a,b Whole Cell Lysate kit from Meso Scale Discovery. Levels of phospho-STAT1 were determined using a CST-PathScan Phospho-STAT1 (Tyr701) Sandwich ELISA kit. Levels of phospho-STAT4 were determined using a Phospho-STAT4 (Tyr693) Whole Cell Lysate kit from Meso Scale Discovery.

JAK3 (a.a. 781-1124) = JAK3 (a.a. 781-1124) (Homo sapiens (Human), UniProt P52333); experiment: JAK3 enzyme activity assay (SRCtide phosphorylation, Caliper); format: biochemical; details: 1 uM ATP; read-out: JAK3 Inhibition IC50
Chain of JAK3 (a.a. 781-1124) (P52333 781-1124): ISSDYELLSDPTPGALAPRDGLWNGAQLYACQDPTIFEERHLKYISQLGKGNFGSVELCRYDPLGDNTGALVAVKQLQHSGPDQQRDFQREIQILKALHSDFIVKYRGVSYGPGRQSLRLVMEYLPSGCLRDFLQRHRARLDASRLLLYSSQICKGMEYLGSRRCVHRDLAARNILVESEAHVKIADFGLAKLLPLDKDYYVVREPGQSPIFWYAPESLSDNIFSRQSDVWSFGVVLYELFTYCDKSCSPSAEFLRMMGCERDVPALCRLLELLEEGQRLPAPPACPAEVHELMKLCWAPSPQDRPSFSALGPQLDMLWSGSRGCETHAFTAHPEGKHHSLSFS

JAK2 = JAK2 (Homo sapiens (Human), UniProt O60674); experiment: JAK2 enzyme activity assay (Thermo Fisher SelectScreen, Z-lyte); format: biochemical; details: read-out: JAK2 Inhibition IC50
Chain of JAK2 (O60674 whole entry): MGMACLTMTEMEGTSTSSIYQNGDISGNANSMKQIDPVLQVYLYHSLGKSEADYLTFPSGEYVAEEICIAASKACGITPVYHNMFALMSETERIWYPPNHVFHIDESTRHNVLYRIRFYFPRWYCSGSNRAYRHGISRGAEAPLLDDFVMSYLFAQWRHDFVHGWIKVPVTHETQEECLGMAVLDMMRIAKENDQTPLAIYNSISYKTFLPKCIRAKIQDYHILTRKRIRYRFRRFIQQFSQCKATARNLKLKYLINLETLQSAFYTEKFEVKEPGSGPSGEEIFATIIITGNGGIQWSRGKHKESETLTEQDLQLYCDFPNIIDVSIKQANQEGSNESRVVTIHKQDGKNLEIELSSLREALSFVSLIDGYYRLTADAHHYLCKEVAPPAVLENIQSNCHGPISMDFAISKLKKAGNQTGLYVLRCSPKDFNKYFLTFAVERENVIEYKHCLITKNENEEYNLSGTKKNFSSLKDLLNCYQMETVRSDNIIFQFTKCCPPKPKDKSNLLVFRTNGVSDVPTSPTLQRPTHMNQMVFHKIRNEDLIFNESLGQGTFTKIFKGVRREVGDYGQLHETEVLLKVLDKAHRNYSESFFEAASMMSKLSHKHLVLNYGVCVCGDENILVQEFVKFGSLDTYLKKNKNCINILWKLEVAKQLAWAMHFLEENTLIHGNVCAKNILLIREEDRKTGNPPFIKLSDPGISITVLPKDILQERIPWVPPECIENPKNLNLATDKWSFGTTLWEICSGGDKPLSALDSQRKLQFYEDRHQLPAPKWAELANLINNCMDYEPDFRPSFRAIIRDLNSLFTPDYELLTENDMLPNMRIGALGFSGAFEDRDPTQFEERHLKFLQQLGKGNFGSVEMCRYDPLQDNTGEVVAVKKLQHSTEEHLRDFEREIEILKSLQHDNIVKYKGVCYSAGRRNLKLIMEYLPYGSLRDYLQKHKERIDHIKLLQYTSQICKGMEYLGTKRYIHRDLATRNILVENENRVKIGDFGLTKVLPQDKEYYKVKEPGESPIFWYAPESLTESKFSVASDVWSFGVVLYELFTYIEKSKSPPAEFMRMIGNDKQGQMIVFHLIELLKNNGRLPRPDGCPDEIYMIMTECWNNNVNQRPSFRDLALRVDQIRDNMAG
Method in brief: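 IC50 values derive from a 4-parameter logistic fit of emission ratio across an 11-point series ([…] to 0.34 nM, 2% DMSO vehicle). Reaction: 1 h, 0.12-0.5 ng JAK2, […] Tyr 06 in HEPES pH 7.5 buffer with MgCl2, EGTA, BRIJ-35, read by Z-lyte development.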

Compound | IC50 [1] | IC50 (JAK1) | IC50 (Tyk-2) | IC50 [2] | IC50 [3] | IC50 (JAK3 (a.a. 781-1124)) | IC50 (JAK2)
N#CCCN1CCC[C@@H](Nc2c(-c3ncco3)cnc3[nH]ccc23)C1 [Example 27, (R)-3-(3-((5-(oxazol-2-yl)-1H-pyrrolo[2,3-b]pyridin-4-yl)amino)piperidin-1-yl)propanenitrile] | > 1000 nM | 10 to 100 nM | 100 to 1000 nM | 100 to 1000 nM | > 1000 nM | ≤ 10 nM | 10 to 100 nM
NC(=O)c1coc(-c2cnc3[nH]ccc3c2N[C@H]2CC[C@@H](O)C2)n1 [Example 29, 2-(4-(((1S,3R)-3-hydroxycyclopentyl)amino)-1H-pyrrolo[2,3-b]pyridin-5-yl)oxazole-4-carboxamide] | 100 to 1000 nM | 10 to 100 nM | 100 to 1000 nM | ≤ 100 nM | > 1000 nM | ≤ 10 nM | 10 to 100 nM
CNC(=O)c1coc(-c2cnc3[nH]ccc3c2N[C@@H]2CC[C@H](C)N(C(=O)CC#N)C2)n1 [Example 30, 2-(4-(((3R,6S)-1-(2-cyanoacetyl)-6-methylpiperidin-3-yl)amino)-1H-pyrrolo[2,3-b]pyridin-5-yl)-N-methyloxazole-4-carboxamide] | 100 to 1000 nM | ≤ 10 nM | ≤ 10 nM | 100 to 1000 nM | > 1000 nM | 100 to 1000 nM | ≤ 10 nM
CNC(=O)c1coc(-c2cnc3[nH]ccc3c2N[C@@H]2CCCN(C(=O)CC#N)C2)n1 [Example 33, (R)-2-(4-((1-(2-cyanoacetyl)piperidin-3-yl)amino)-1H-pyrrolo[2,3-b]pyridin-5-yl)-N-methyloxazole-4-carboxamide] | 100 to 1000 nM | ≤ 10 nM | 10 to 100 nM | ≤ 100 nM | > 1000 nM | ≤ 10 nM | 10 to 100 nM
Cc1cnc(-c2cnc3[nH]ccc3c2N[C@@H]2CCCN(C(=O)CC#N)C2)o1 [Example 36, (R)-3-(3-((5-(5-methyloxazol-2-yl)-1H-pyrrolo[2,3-b]pyridin-4-yl)amino)piperidin-1-yl)-3-oxopropanenitrile] | ≤ 100 nM | ≤ 10 nM | ≤ 10 nM | ≤ 100 nM | 100 to 1000 nM | ≤ 10 nM | ≤ 10 nM
N#CCC(=O)N1CCC[C@@H](Nc2c(-c3ncon3)cnc3[nH]ccc23)C1 [Example 38, (R)-3-(3-((5-(1,2,4-oxadiazol-3-yl)-1H-pyrrolo[2,3-b]pyridin-4-yl)amino)piperidin-1-yl)-3-oxopropanenitrile] | > 1000 nM | 10 to 100 nM | 100 to 1000 nM | 100 to 1000 nM | > 1000 nM | 10 to 100 nM | 10 to 100 nM
C[C@H]1C[C@@H](Nc2c(-c3ccn(C(F)F)n3)cnc3[nH]ccc23)CN(C(=O)CC#N)C1 [Example 40, 3-((3R,5S)-3-((5-(1-(difluoromethyl)-1H-pyrazol-3-yl)-1H-pyrrolo[2,3-b]pyridin-4-yl)amino)-5-methylpiperidin-1-yl)-3-oxopropanenitrile] | ≤ 100 nM | ≤ 10 nM | ≤ 10 nM | ≤ 100 nM | ≤ 100 nM | ≤ 10 nM | ≤ 10 nM
COc1nccc(-c2cnc3[nH]ccc3c2N[C@@H]2CCCN(C(=O)CC#N)C2)n1 [Example 43, (R)-3-(3-((5-(2-methoxypyrimidin-4-yl)-1H-pyrrolo[2,3-b]pyridin-4-yl)amino)piperidin-1-yl)-3-oxopropanenitrile] | 100 to 1000 nM | ≤ 10 nM | 10 to 100 nM | ≤ 100 nM | > 1000 nM | 10 to 100 nM | 10 to 100 nM
N#CCC(=O)N1CCC[C@@H](Nc2c(-c3cccc(N)n3)cnc3[nH]ccc23)C1 [Example 44, (R)-3-(3-((5-(6-aminopyridin-2-yl)-1H-pyrrolo[2,3-b]pyridin-4-yl)amino)piperidin-1-yl)-3-oxopropanenitrile] | 100 to 1000 nM | ≤ 10 nM | 10 to 100 nM | 100 to 1000 nM | > 1000 nM | 10 to 100 nM | 10 to 100 nM

Other lines, results leading:

IC50 [1] | IC50 (JAK1) | IC50 (Tyk-2) | IC50 [2] | IC50 [3] | IC50 (JAK3 (a.a. 781-1124)) | IC50 (JAK2) | Compound
100 to 1000 nM | ≤ 10 nM | 10 to 100 nM | ≤ 100 nM | > 1000 nM | 10 to 100 nM | 10 to 100 nM | Cc1cc(-c2cnc3[nH]ccc3c2N[C@@H]2CCCN(C(=O)CC#N)C2)[nH]n1 [Example 26, (R)-3-(3-((5-(3-methyl-1H-pyrazol-5-yl)-1H-pyrrolo[2,3-b]pyridin-4-yl)amino)piperidin-1-yl)-3-oxopropanenitrile]
≤ 100 nM | ≤ 10 nM | ≤ 10 nM | ≤ 100 nM | 100 to 1000 nM | ≤ 10 nM | ≤ 10 nM | C[C@H]1CC[C@@H](Nc2c(-c3ncco3)cnc3[nH]ccc23)CN1C(=O)CC#N [Example 28, 3-((2S,5R)-2-methyl-5-((5-(oxazol-2-yl)-1H-pyrrolo[2,3-b]pyridin-4-yl)amino)piperidin-1-yl)-3-oxopropanenitrile]
100 to 1000 nM | ≤ 10 nM | 10 to 100 nM | 100 to 1000 nM | > 1000 nM | ≤ 10 nM | 10 to 100 nM | CN(C)C(=O)c1coc(-c2cnc3[nH]ccc3c2N[C@@H]2CCCN(C(=O)CC#N)C2)n1 [Example 34, (R)-2-(4-((1-(2-cyanoacetyl)piperidin-3-yl)amino)-1H-pyrrolo[2,3-b]pyridin-5-yl)-N,N-dimethyl-oxazole-4-carboxamide]
100 to 1000 nM | ≤ 10 nM | 10 to 100 nM | ≤ 100 nM | > 1000 nM | ≤ 10 nM | 10 to 100 nM | Cc1cnc(-c2cnc3[nH]ccc3c2N[C@@H]2CCCN(CCC#N)C2)o1 [Example 37, (R)-3-(3-((5-(5-methyloxazol-2-yl)-1H-pyrrolo[2,3-b]pyridin-4-yl)amino)piperidin-1-yl)propanenitrile]
100 to 1000 nM | ≤ 10 nM | ≤ 10 nM | ≤ 100 nM | 100 to 1000 nM | ≤ 10 nM | ≤ 10 nM | N#CCC(=O)N1CCC[C@@H](Nc2c(-c3ccsn3)cnc3[nH]ccc23)C1 [Example 41, (R)-3-(3-((5-(isothiazol-3-yl)-1H-pyrrolo[2,3-b]pyridin-4-yl)amino)piperidin-1-yl)-3-oxopropanenitrile]
100 to 1000 nM | ≤ 10 nM | ≤ 10 nM | ≤ 100 nM | 100 to 1000 nM | ≤ 10 nM | ≤ 10 nM | CCOC(=O)c1cnc(-c2cnc3[nH]ccc3c2N[C@@H]2CCCN(C(=O)CC#N)C2)s1 [Example 42, ethyl (R)-2-(4-((1-(2-cyanoacetyl)piperidin-3-yl)amino)-1H-pyrrolo[2,3-b]pyridin-5-yl)thiazole-5-carboxylate]
